Results published in patent US8435962B2, “Triacetyl-3-hydroxyphenyladenosine and its use for regulating blood fat” (Institute of Mataria Medica, Chinese Academy of Medical …, priority 2009, dated 2013).

How the values were obtained:
hyperlipidemia hamsters [1] = experiment: Serum lipid level in hyperlipidemic hamsters after drug discontinuance (2 weeks); assay type: in vivo, hamster; details: for TC / TG / serum lipid levels after drug discontinuance: hamsters; for TC / TG: 2 weeks after drug discontinuance, high-fat diet continued; for serum lipid levels after drug discontinuance: vs model group, in words
Experimental: (§2) After a week of accommodation, except control group (n=12) all the hamsters (n=72) were fed with high-fat laboratory chow.
(§3) After four weeks high-fat diet modeling, rats were treated with different drugs by intragastric administration. Control animals received an equal volume of vehicle.
(§4) At the end of 4 weeks drug treatment, animals were fasted for 12 hours (10 of each group). The next day, they were anesthetized by intraperitoneal injection of pentobarbitale sodium (45 mg/kg). Blood samples were collected from the abdominal aorta within 15 min, and plasma was separated. Plasma TC, TG, HDL-C, LDL-C, ALT, FFA were detected. Liver and the retroperitoneal fat were separated and weighed, the liver and fat index were calculated. Liver SOD and MDA were detected by kit after homogenized. The left hamsters (10 each group) drug treatment was withdrawn while high-fat diet modeling continued. Two weeks later, blood sample was collected from the orbit and serum TC and TG were detected.

hyperlipidemia rats [2] = experiment: Effects on hepatic SOD activity and MDA content of hyperlipidemia rats; assay type: in vivo, rat; details: for hepatic MDA / hepatic SOD: 4 weeks
Source text: (§1) Control animals received an equal volume of vehicle.

hyperlipidemia rats [3] = experiment: Effects on liver weight and serum ALT activity of hyperlipidemia rats; details: 4 weeks
Experimental: (§5) After a week of accommodation, except control group (20 rat), all the rats (120 rats) were fed with high-fat laboratory chow.
as §3
(§6) At the end of 4 weeks drug treatment, animals were fasted for 12 hours before anesthetizing by intraperitoneal injection of pentobarbitale sodium (45 mg/kg), and anticoagulated by 100 U/kg heparin through caudal vein injection. Blood samples were collected from the abdominal aorta within 15 min, and serum was separated. Serum TC, TG, HDL-C, LDL-C, ALT, FFA were detected. Liver and the fat pad behind the belly were separated and weighed, the liver and retroperitoneal fat were weighed too. […] The left rats (10 rats each group) drug treatment was withdrawn while high-fat diet modeling continued. Two weeks later, blood sample was collected from the orbit, and serum TC, TG were detected.

hyperlipidemia rats [4] = experiment: Effects on plasma lipid in hyperlipidemia rats (high-fat diet); assay type: in vivo, rat; details: for FFA / HDL-C / HDL/LDL / LDL-C / TC / TG: 4 weeks;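 for all read-outs here: rats kept on high-fat chow for 4 weeks before dosing, serum taken from abdominal aorta after a 12 h fast at end of treatment, controls given vehicle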
Experimental: as §5, §3, §6

hyperlipidemia hamsters [5] = experiment: Effects on hepatic SOD activity and MDA concentration in hyperlipidemic hamsters' livers; assay type: in vivo, hamster; details: for hepatic MDA / hepatic SOD: 4 weeks
Experimental: as §2, §3, §4

hyperlipidemia hamsters [6] = experiment: Effects on plasma lipid in hyperlipidemia hamsters (high-fat diet); assay type: in vivo, hamster; details: for HDL-C / HDL/LDL / LDL-C / TC / TG: 4 weeks;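 for all read-outs here: hamsters given high-fat chow for four weeks, then dosed by gavage, plasma lipids measured in abdominal aortic blood after a 12 h fast, compared with vehicle-treated controls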
Experimental: as §2, §3, §4

hyperlipidemia rats [7] = experiment: Serum lipid of hyperlipidemia rats after withdrawal from drugs for 2 weeks; assay type: in vivo, rat; details: for TC / TG: rats, 2 weeks after drug withdrawal, high-fat diet continued
Experimental: as §5, §3, §6

hyperlipidemia hamsters [8] = experiment: Effects on serum ALT activity in hyperlipidemic hamsters; details: for ALT: hyperlipidemic hamsters, 4 weeks
Experimental: as §2, §3, §4

hyperlipidemia rats [9] = experiment: Effects on retroperitoneal fat weight of hyperlipidemic rats; assay type: in vivo, rat; details: for Fat weight (retroperitoneal fat): hyperlipidemic rats, 4 weeks
Source text: as §1

hyperlipidemia hamsters [10] = experiment: Effect on retroperitoneal fat of hyperlipidemia hamsters; assay type: in vivo, hamster
Experimental: as §2, §3, §4

[11] = hyperlipidemia rats, 3 mg/kg intragastric
[12] = hyperlipidemia rats, 6 mg/kg intragastric
[13] = hyperlipidemia rats, 12 mg/kg intragastric

## CC(=O)OC[C@H]1O[C@@H](n2cnc3c(Nc4cccc(O)c4)ncnc32)[C@H](OC(C)=O)[C@@H]1OC(C)=O [WS070117, O^2′,O^3′,O^5′-tri-acetyl-N^6-(3-hydroxylphenyl)adenosine]
Hyperlipidemia hamsters [1]; 3 mg/kg
  TC: 5.34 ± 1.32 mmol/L
  TG: 4.36 ± 1.27 mmol/L
Hyperlipidemia hamsters [1]; 6 mg/kg
  serum lipid levels after drug discontinuance: significantly lower
  TC: 5.02 ± 1.35 mmol/L
  TG: 4.16 ± 0.77 mmol/L
Hyperlipidemia hamsters [1]; 12 mg/kg
  serum lipid levels after drug discontinuance: significantly lower
  TC: 4.61 ± 1.11 mmol/L
  TG: 3.82 ± 0.66 mmol/L
Hyperlipidemia hamsters [1]; hyperlipidemic hamsters
  time hypolipidemic effect lasted after drug discontinuance: ≥ 2 weeks
Hyperlipidemia rats [2]; 3 mg/kg intragastric
  hepatic MDA: 8.51 ± 3.32 nmol/mg protein
  hepatic SOD: 93.3 ± 37.5 U/g pr
Hyperlipidemia rats [2]; 6 mg/kg intragastric
  hepatic MDA: 8.71 ± 2.83 nmol/mg protein
  hepatic SOD: 102.0 ± 24.4 U/g pr
Hyperlipidemia rats [2]; 12 mg/kg intragastric
  hepatic MDA: 8.29 ± 2.78 nmol/mg protein
  hepatic SOD: 107.7 ± 26.4 U/g pr
Hyperlipidemia rats [2]; after administration, in words
  hepatic SOD activity: significantly increased
Hyperlipidemia rats [2]; in words
  hepatic MDA content: decreased
Hyperlipidemia rats [3]; 'rat' in hamster Table 9, 3 mg/kg intragastric
  Liver weight: 3.22 ± 0.48 g/100 g body weight
Hyperlipidemia rats [3]; 'rat' in hamster Table 9, 6 mg/kg intragastric
  Liver weight: 3.21 ± 0.38 g/100 g body weight
Hyperlipidemia rats [3]; 'rat' in hamster Table 9, 12 mg/kg intragastric
  Liver weight: 3.26 ± 0.54 g/100 g body weight
Hyperlipidemia rats [3]; [11]
  Liver weight: 3.22 ± 0.48 g/100 g body weight
  serum ALT: 42.9 ± 13.7 U/L
Hyperlipidemia rats [3]; [12]
  Liver weight: 3.21 ± 0.38 g/100 g body weight
  serum ALT: 41.6 ± 19.8 U/L
Hyperlipidemia rats [3]; [13]
  Liver weight: 3.26 ± 0.54 g/100 g body weight
  serum ALT: 42.0 ± 16.6 U/L
Hyperlipidemia rats [4]; 3 mg/kg intragastric
  FFA: 1.04 ± 0.24 mmol/L
  HDL-C: 0.58 ± 0.10 mmol/L
  HDL/LDL: 0.43 ± 0.12
  LDL-C: 1.38 ± 0.27 mmol/L
  TC: 2.39 ± 0.34 mmol/L
  TG: 0.67 ± 0.15 mmol/L
Hyperlipidemia rats [4]; 6 mg/kg intragastric
  FFA: 0.94 ± 0.17 mmol/L
  HDL-C: 0.59 ± 0.18 mmol/L
  HDL/LDL: 0.52 ± 0.19
  LDL-C: 1.19 ± 0.18 mmol/L
  TC: 2.11 ± 0.24 mmol/L
  TG: 0.52 ± 0.13 mmol/L
Hyperlipidemia rats [4]; 6 mg/kg, in words
  effect on rats FFA: significant effect
Hyperlipidemia rats [4]; 12 mg/kg intragastric
  FFA: 0.97 ± 0.27 mmol/L
  HDL-C: 0.56 ± 0.10 mmol/L
  HDL/LDL: 0.47 ± 0.13
  LDL-C: 1.24 ± 0.20 mmol/L
  TC: 2.30 ± 0.29 mmol/L
  TG: 0.55 ± 0.19 mmol/L
Hyperlipidemia rats [4]; after treatment, in words
  HDL-C/LDL-C: increased
  blood TC, TG and LDL-C: decreased
Hyperlipidemia hamsters [5]; 3 mg/kg intragastric
  hepatic MDA: 4.8 ± 1.2 nmol/mg protein
  hepatic SOD: 84.0 ± 19.6 U/g pr
Hyperlipidemia hamsters [5]; 6 mg/kg intragastric
  hepatic MDA: 4.23 ± 0.72 nmol/mg protein
  hepatic SOD: 95.1 ± 31.6 U/g pr
Hyperlipidemia hamsters [5]; 12 mg/kg intragastric
  hepatic MDA: 4.6 ± 0.92 nmol/mg protein
  hepatic SOD: 91.9 ± 22.9 U/g pr
Hyperlipidemia hamsters [5]; in words
  MDA concentration: lower than the model group
Hyperlipidemia hamsters [6]; 3 mg/kg intragastric
  HDL-C: 1.24 ± 0.26 mmol/L
  HDL/LDL: 0.37 ± 0.11
  LDL-C: 3.68 ± 1.44 mmol/L
  TC: 4.35 ± 0.93 mmol/L
  TG: 4.26 ± 1.52 mmol/L
Hyperlipidemia hamsters [6]; 6 mg/kg intragastric
  HDL-C: 1.14 ± 0.18 mmol/L
  HDL/LDL: 0.40 ± 0.09
  LDL-C: 3.00 ± 0.90 mmol/L
  TC: 4.19 ± 1.14 mmol/L
  TG: 3.67 ± 1.46 mmol/L
Hyperlipidemia hamsters [6]; 12 mg/kg intragastric
  HDL-C: 1.24 ± 0.40 mmol/L
  HDL/LDL: 0.59 ± 0.31
  LDL-C: 2.26 ± 0.47 mmol/L
  TC: 3.60 ± 1.84 mmol/L
  TG: 3.44 ± 1.29 mmol/L
Hyperlipidemia hamsters [6]; after treatment, in words
  blood TC, TG and LDL-C: decreased
  rate HDL-C/LDL-C: increased
Hyperlipidemia rats [7]; hyperlipidemia rats
  time blood-fat regulatory effect is sustained after withdrawal: more than 2 weeks
Hyperlipidemia rats [7]; hyperlipidemia rats, in words
  serum TC content after withdrawal from drugs for 2 weeks: significantly lower than that of the model group
Hyperlipidemia rats [7]; 3 mg/kg
  TC: 2.12 ± 0.45 mmol/L
  TG: 1.04 ± 0.19 mmol/L
Hyperlipidemia rats [7]; 6 mg/kg
  TC: 2.02 ± 0.43 mmol/L
  TG: 1.03 ± 0.22 mmol/L
Hyperlipidemia rats [7]; 12 mg/kg
  TC: 2.15 ± 0.32 mmol/L
  TG: 1.01 ± 0.38 mmol/L
Hyperlipidemia hamsters [8]; 3 mg/kg intragastric
  ALT: 100.7 ± 38.2 U/L
Hyperlipidemia hamsters [8]; 6 mg/kg intragastric
  ALT: 91.7 ± 23.1 U/L
Hyperlipidemia hamsters [8]; 12 mg/kg intragastric
  ALT: 95.2 ± 34.8 U/L
Hyperlipidemia hamsters [8]; text of hamster Example 3 says 'hyperlipidemic rats', in words
  serum ALT activity: slightly reduced
Hyperlipidemia rats [9]; hyperlipidemia rats, after administration, in words
  weight of rats' retroperitoneal fat: obviously decreased
Hyperlipidemia rats [9]; 3 mg/kg intragastric
  Fat weight (retroperitoneal fat): 0.67 ± 0.33 g/100 g body weight
Hyperlipidemia rats [9]; 6 mg/kg intragastric
  Fat weight (retroperitoneal fat): 0.67 ± 0.12 g/100 g body weight
Hyperlipidemia rats [9]; 12 mg/kg intragastric
  Fat weight (retroperitoneal fat): 0.64 ± 0.22 g/100 g body weight
Hyperlipidemia hamsters [10]; 3 mg/kg intragastric, 4 weeks
  retroperitoneal fat: 1.26 ± 0.34 g/100g
Hyperlipidemia hamsters [10]; 6 mg/kg intragastric, 4 weeks
  retroperitoneal fat: 1.23 ± 0.23 g/100g
Hyperlipidemia hamsters [10]; 12 mg/kg intragastric, 4 weeks
  retroperitoneal fat: 1.31 ± 0.27 g/100g
Hyperlipidemia hamsters [10]; after treatment, in words
  retroperitoneal fat: decreased
